Results published in PubChem BioAssay AID328 (DTP/NCI, 2004).
“And” between values parts separate entries of the source, which are not always exact repeats. Equal entries are not always repeated. Toxic doses and inconclusive results are not listed.

System: BDF1 mice, P388 leukemia ip, median survival T/C
Experiment: NCI In Vivo Anticancer Drug Screen. Data for tumor model P388 Leukemia (intraperitoneal) in B6D2F1 (BDF1) mice
Details: endpoint: median survival time, higher = longer survival
Summary of the method: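 Steps: implant the tumour, treat one group with compound and another with vehicle, record survival, then divide treated by control.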

[1] = dose: 50.0 mg/kg/injection, schedule: Q01DX009 (ip), vehicle: saline with Tween-80
[2] = dose: 50.0 mg/kg/injection, schedule: Q04DX003 (ip), vehicle: saline with Tween-80
[3] = dose: 100.0 mg/kg/injection, schedule: Q01DX009 (ip), vehicle: saline with Tween-80
[4] = dose: 100.0 mg/kg/injection, schedule: Q04DX003 (ip), vehicle: saline with Tween-80
[5] = dose: 200.0 mg/kg/injection, schedule: Q01DX009 (ip), vehicle: saline with Tween-80
[6] = dose: 200.0 mg/kg/injection, schedule: Q04DX003 (ip), vehicle: saline with Tween-80
[7] = dose: 200.0 mg/kg/injection, schedule: Q01DX009 (ip), vehicle: saline
[8] = dose: 400.0 mg/kg/injection, schedule: Q01DX009 (ip), vehicle: saline
[9] = dose: 25.0 mg/kg/injection, schedule: Q04DX003 (ip), vehicle: saline with Tween-80
[10] = dose: 400.0 mg/kg/injection, schedule: Q04DX003 (ip), vehicle: saline with Tween-80
[11] = dose: 25.0 mg/kg/injection, schedule: Q01DX009 (ip), vehicle: saline with Tween-80

SMILES: Cc1cc(=O)[nH]c2c1CCC2
- T/C [1]: 109 % of control
- T/C [2]: 100 % of control
- T/C [3]: 90 % of control
- T/C [4]: 100 % of control
- T/C [5]: 104 % of control
- T/C [6]: 100 % of control

SMILES: CC(=O)Oc1ccc[nH]c1=O
- T/C [7]: 100 % of control
- T/C (dose: 264.0 mg/kg/injection, schedule: Q01DX009 (ip), vehicle: saline with Tween-80): 115 % of control
- T/C [8]: 150 % of control
- T/C (dose: 600.0 mg/kg/injection, schedule: Q01DX009 (ip), vehicle: saline with Tween-80): 115 % of control
- T/C (dose: 600.0 mg/kg/injection, schedule: Q01DX009 (ip), vehicle: saline): 95 % of control

SMILES: CCOC(=O)C1C(=O)C(CN(CCCl)CCCl)C(=O)C(C(=O)OCC)C1c1ccc(O)cc1 (stereo unspecified)
- T/C (dose: 0.75 mg/kg/injection, schedule: Q01DX009 (ip), vehicle: Klucel (hydroxypropylcellulose) (HPC)): 180 % of control
- T/C (dose: 1.5 mg/kg/injection, schedule: Q01DX009 (ip), vehicle: Klucel (hydroxypropylcellulose) (HPC)): 190 % of control
- T/C (dose: 3.0 mg/kg/injection, schedule: Q01DX009 (ip), vehicle: Klucel (hydroxypropylcellulose) (HPC)): 183 % of control
- T/C (dose: 3.13 mg/kg/injection, schedule: Q04DX003 (ip), vehicle: saline with Tween-80): 153 % of control
- T/C (dose: 6.0 mg/kg/injection, schedule: Q01DX009 (ip), vehicle: Klucel (hydroxypropylcellulose) (HPC)): 266 % of control
- T/C (dose: 6.25 mg/kg/injection, schedule: Q01DX009 (ip), vehicle: Klucel (hydroxypropylcellulose) (HPC)): 185 % of control
- T/C (dose: 6.25 mg/kg/injection, schedule: Q04DX003 (ip), vehicle: Klucel (hydroxypropylcellulose) (HPC)): 180 % of control
- T/C (dose: 6.25 mg/kg/injection, schedule: Q04DX003 (ip), vehicle: saline with Tween-80): 160 % of control
- T/C (dose: 11.0 mg/kg/injection, schedule: Q01DX009 (ip), vehicle: Klucel (hydroxypropylcellulose) (HPC)): 209 % of control
- T/C (dose: 12.5 mg/kg/injection, schedule: Q01DX009 (ip), vehicle: Klucel (hydroxypropylcellulose) (HPC)): 269 % of control
- T/C (dose: 12.5 mg/kg/injection, schedule: Q04DX003 (ip), vehicle: Klucel (hydroxypropylcellulose) (HPC)): 195 % of control
- T/C (dose: 12.5 mg/kg/injection, schedule: Q04DX003 (ip), vehicle: saline with Tween-80): 225 % of control
- T/C (dose: 16.5 mg/kg/injection, schedule: Q01DX009 (ip), vehicle: Klucel (hydroxypropylcellulose) (HPC)): 232 % of control
- T/C (dose: 20.0 mg/kg/injection, schedule: Q04DX003 (ip), vehicle: Klucel (hydroxypropylcellulose) (HPC)): 105 % of control
- T/C (dose: 25.0 mg/kg/injection, schedule: Q01DX009 (ip), vehicle: Klucel (hydroxypropylcellulose) (HPC)): 243 % of control and 95 % of control and 190 % of control
- T/C (dose: 25.0 mg/kg/injection, schedule: Q04DX003 (ip), vehicle: Klucel (hydroxypropylcellulose) (HPC)): 182 % of control
- T/C [9]: 260 % of control and 267 % of control
- T/C (dose: 37.5 mg/kg/injection, schedule: Q01DX009 (ip), vehicle: Klucel (hydroxypropylcellulose) (HPC)): 103 % of control
- T/C (dose: 50.0 mg/kg/injection, schedule: Q04DX003 (ip), vehicle: Klucel (hydroxypropylcellulose) (HPC)): 89 % of control
- T/C (dose: 80.0 mg/kg/injection, schedule: Q04DX003 (ip), vehicle: Klucel (hydroxypropylcellulose) (HPC)): 155 % of control
- T/C (dose: 118.0 mg/kg/injection, schedule: Q04DX003 (ip), vehicle: Klucel (hydroxypropylcellulose) (HPC)): 160 % of control
- T/C (dose: 177.0 mg/kg/injection, schedule: Q04DX003 (ip), vehicle: Klucel (hydroxypropylcellulose) (HPC)): 175 % of control
- T/C (dose: 200.0 mg/kg/injection, schedule: Q04DX003 (ip), vehicle: Klucel (hydroxypropylcellulose) (HPC)): 159 % of control
- T/C (dose: 266.0 mg/kg/injection, schedule: Q04DX003 (ip), vehicle: Klucel (hydroxypropylcellulose) (HPC)): 170 % of control
- T/C (dose: 400.0 mg/kg/injection, schedule: Q04DX003 (ip), vehicle: Klucel (hydroxypropylcellulose) (HPC)): 180 % of control and 195 % of control

SMILES: Cn1cnccc1=O
- T/C (dose: 50.0 mg/kg/injection, schedule: Q01DX009 (ip), vehicle: water): 122 % of control
- T/C (dose: 100.0 mg/kg/injection, schedule: Q01DX009 (ip), vehicle: water): 121 % of control
- T/C (dose: 100.0 mg/kg/injection, schedule: Q04DX003 (ip), vehicle: water): 118 % of control
- T/C (dose: 200.0 mg/kg/injection, schedule: Q01DX009 (ip), vehicle: water): 102 % of control
- T/C (dose: 200.0 mg/kg/injection, schedule: Q04DX003 (ip), vehicle: water): 106 % of control
- T/C (dose: 400.0 mg/kg/injection, schedule: Q01DX009 (ip), vehicle: water): 103 % of control
- T/C (dose: 400.0 mg/kg/injection, schedule: Q04DX003 (ip), vehicle: water): 115 % of control

SMILES: CC1(C)C2CCC(CN)C1C2 (stereo unspecified)
- T/C (dose: 100.0 mg/kg/injection, schedule: Q01DX009 (ip), vehicle: other): 106 % of control

SMILES: Cc1ncc(O)c(CO)c1O
- T/C (dose: 50.0 mg/kg/injection, schedule: Q01DX009 (ip), vehicle: saline): 110 % of control
- T/C (dose: 100.0 mg/kg/injection, schedule: Q01DX009 (ip), vehicle: saline): 94 % of control
- T/C [7]: 99 % of control
- T/C [8]: 107 % of control

SMILES: c1ccc2c(c1)C1CCC2c2ccccc21
- T/C [2]: 100 % of control
- T/C [4]: 100 % of control
- T/C [6]: 88 % of control and 100 % of control
- T/C [10]: 100 % of control

SMILES: CC(=O)C(C)(CCC#N)CCC#N
- T/C [2]: 104 % of control
- T/C [4]: 100 % of control

SMILES: Cc1[nH][nH]c(=O)c1N=O
- T/C (dose: 18.75 mg/kg/injection, schedule: Q01DX009 (ip), vehicle: saline with Tween-80): 92 % of control
- T/C (dose: 37.5 mg/kg/injection, schedule: Q01DX009 (ip), vehicle: saline with Tween-80): 99 % of control
- T/C (dose: 75.0 mg/kg/injection, schedule: Q01DX009 (ip), vehicle: saline with Tween-80): 99 % of control

SMILES: Cc1ccc(C(=O)O)cc1S(=O)(=O)Cl
- T/C (dose: 4.0 mg/kg/injection, schedule: Q01DX009 (ip), vehicle: saline with Tween-80): 117 % of control
- T/C (dose: 8.0 mg/kg/injection, schedule: Q01DX009 (ip), vehicle: saline with Tween-80): 110 % of control
- T/C (dose: 16.0 mg/kg/injection, schedule: Q01DX009 (ip), vehicle: saline with Tween-80): 90 % of control
- T/C [11]: 104 % of control
- T/C (dose: 32.0 mg/kg/injection, schedule: Q01DX009 (ip), vehicle: saline with Tween-80): 117 % of control
- T/C [1]: 95 % of control
- T/C [2]: 106 % of control
- T/C [3]: 98 % of control
- T/C [4]: 100 % of control
- T/C [5]: 95 % of control

SMILES: C(#C[P+]1(c2ccccc2)C=C(c2ccccc2)OC(c2ccccc2)=C1)c1ccccc1
- T/C (dose: 50.0 mg/kg/injection, schedule: Q01DX005 (ip), vehicle: saline with Tween-80): 110 % of control

SMILES: OC(CCl)COCC#Cc1ccccc1 (stereo unspecified)
- T/C [9]: 105 % of control
- T/C [2]: 100 % of control
- T/C [3]: 95 % of control
- T/C [4]: 115 % of control
- T/C [5]: 112 % of control
- T/C [6]: 95 % of control
- T/C (dose: 400.0 mg/kg/injection, schedule: Q01DX009 (ip), vehicle: saline with Tween-80): 116 % of control
- T/C [10]: 95 % of control

SMILES: CCC[CH2][Sn]1([CH2]CCC)[S]CC[N]1S(=O)(=O)c1ccc(C)cc1
- T/C (dose: 3.0 mg/kg/injection, schedule: Q01DX009 (ip), vehicle: gum acacia): 119 % of control

SMILES: C[P+](c1ccc(Cl)cc1)(c1ccc(Cl)cc1)c1ccc(Cl)cc1
- T/C (dose: 6.25 mg/kg/injection, schedule: Q04DX003 (ip), vehicle: saline): 100 % of control
- T/C (dose: 12.5 mg/kg/injection, schedule: Q04DX003 (ip), vehicle: saline): 104 % of control
- T/C (dose: 25.0 mg/kg/injection, schedule: Q04DX003 (ip), vehicle: saline): 109 % of control

SMILES: CC1(C)N=C(N)N=C(N)N1c1cccc(Br)c1
- T/C (dose: 2.7 mg/kg/injection, schedule: Q04DX003 (ip), vehicle: saline): 100 % of control
- T/C (dose: 4.0 mg/kg/injection, schedule: Q04DX003 (ip), vehicle: saline): 90 % of control
- T/C (dose: 33.0 mg/kg/injection, schedule: Q04DX003 (ip), vehicle: saline): 168 % of control
- T/C (dose: 50.0 mg/kg/injection, schedule: Q04DX003 (ip), vehicle: saline): 177 % of control and 179 % of control
- T/C (dose: 75.0 mg/kg/injection, schedule: Q04DX003 (ip), vehicle: saline): 90 % of control

SMILES: CCc1c(CC(=O)O)c2cc(C)ccc2n1Cc1ccc(Cl)cc1
- T/C [11]: 104 % of control
- T/C [1]: 109 % of control and 118 % of control
- T/C [3]: 104 % of control and 109 % of control

SMILES: O=[N+]([O-])c1ccc2c(c1)[nH]c1ccccc12
- T/C [1]: 113 % of control
- T/C [3]: 115 % of control
- T/C [5]: 114 % of control
